According to patent US10125123B2, “Small molecule IRE1-α inhibitors” (Cornell University, priority 2016, dated 2018):

Target: T1, IRE1α (Homo sapiens, UniProt O75460)
T1 construct: purchased SignalChem
Experiment: In vitro FRET assay (XBP1 RNA probe cleavage by IRE1α)
Conditions: biochemical FRET assay, 2 nM IRE1α
Experimental: In vitro FRET assay was performed to evaluate the ability of select compounds to inhibit IRE1, the results of which are summarized in the following table.
To perform the in vitro FRET assay, 1× complete assay buffer (CAB; […], 50 mM sodium citrate pH 7.15, 1 mM magnesium acetate, 0.02% Tween 20) was used to dilute SignalChem IRE1α in protein to a final concentration of 2 nM. Selected compounds were serially diluted with DMSO in a non-binding black 384-well plate for a total of 15 μl in each well. 2 μl of the serially diluted compound or DMSO control were then added to new wells containing 98 μl of 1×CAB, for a total volume of 100 μl, 10 μl of which were then transferred to wells of a new plate. 5 μl of the diluted IRE1α was then added to each well. 5 μl of a […] XBP1 RNA probe was then added to each well. Fluorescence was then read over 30 minutes in kinetic mode (485/515 nm). Two RNA probes were used, XBP1 wildtype (CAUGUCCGCAGCACAUG; SEQ ID NO: 1) which is able to be spliced by active IRE1α or XBP1 mutant (CAUGUCCCCAGCACAUG; SEQ ID NO: 2) which is unable to be spliced. Each probe contained a 5′ 6-FAM modification and a 3′ IOWA Black FQ modification. […]

T1 sequence (O75460 19-977): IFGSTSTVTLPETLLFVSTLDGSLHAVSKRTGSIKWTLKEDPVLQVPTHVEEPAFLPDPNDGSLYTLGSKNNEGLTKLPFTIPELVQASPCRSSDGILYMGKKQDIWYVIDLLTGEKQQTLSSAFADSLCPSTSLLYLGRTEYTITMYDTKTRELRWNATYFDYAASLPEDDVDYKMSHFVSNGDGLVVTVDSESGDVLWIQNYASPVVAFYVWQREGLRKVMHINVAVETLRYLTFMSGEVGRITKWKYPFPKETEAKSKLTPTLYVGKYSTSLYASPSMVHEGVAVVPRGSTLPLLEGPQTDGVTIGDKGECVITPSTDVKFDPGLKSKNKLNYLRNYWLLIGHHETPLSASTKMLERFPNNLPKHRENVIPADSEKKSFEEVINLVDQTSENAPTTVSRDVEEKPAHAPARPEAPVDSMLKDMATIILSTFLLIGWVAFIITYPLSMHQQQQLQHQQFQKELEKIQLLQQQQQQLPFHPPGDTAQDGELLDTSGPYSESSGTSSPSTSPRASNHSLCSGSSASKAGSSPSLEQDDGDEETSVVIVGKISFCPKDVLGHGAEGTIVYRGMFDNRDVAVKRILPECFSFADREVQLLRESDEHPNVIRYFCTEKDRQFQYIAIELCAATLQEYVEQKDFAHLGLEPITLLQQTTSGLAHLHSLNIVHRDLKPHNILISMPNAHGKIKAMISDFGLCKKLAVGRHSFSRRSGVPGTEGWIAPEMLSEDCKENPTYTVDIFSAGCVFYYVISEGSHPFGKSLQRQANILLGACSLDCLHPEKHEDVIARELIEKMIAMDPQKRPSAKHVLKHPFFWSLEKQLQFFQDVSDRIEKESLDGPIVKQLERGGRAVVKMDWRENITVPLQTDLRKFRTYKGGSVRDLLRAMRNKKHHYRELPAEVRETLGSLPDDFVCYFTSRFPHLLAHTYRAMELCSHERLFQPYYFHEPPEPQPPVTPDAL

Compound	EC50 [µM]
CN1CCN(Cc2ccc(NC(=O)Nc3cc(-c4cccnc4)[nH]n3)cc2C(F)(F)F)CC1 [Compound 7, 1-(4-((4-methylpiperazin-1-yl)methyl)-3-(trifluoromethyl)phenyl)-3-(5-(pyridin-3-yl)-1H-pyrazol-3-yl)urea]	5 to 50
CCN1CCN(Cc2ccc(NC(=O)Nc3cc(-c4ccc5ccncc5c4)n(C)n3)cc2C(F)(F)F)CC1 [Compound 35, 1-(4-((4-ethylpiperazin-1-yl)methyl)-3-(trifluoromethyl)phenyl)-3-(5-(isoquinolin-7-yl)-1-methyl-1H-pyrazol-3-yl)urea]	≤ 5
Cc1cc2oc(-c3cnn4ccccc34)nc2cc1NC(=O)Nc1ccc(CN2CCN(C)CC2)c(C(F)(F)F)c1 [Compound 17, 1-(6-methyl-2-(pyrazolo[1,5-a]pyridin-3-yl)benzo[d]oxazol-5-yl)-3-(4-((4-methylpiperazin-1-yl)methyl)-3-(trifluoromethyl)phenyl)urea]	> 100
O=C(Nc1ccc(CN2CCN(Cc3ccccc3)CC2)c(C(F)(F)F)c1)Nc1ccc2oc(-c3cccnc3)nc2c1 [Compound 14, 1-(4-((4-benzylpiperazin-1-yl)methyl)-3-(trifluoromethyl)phenyl)-3-(2-(pyridin-3-yl)benzo[d]oxazol-5-yl)urea]	50 to 100
CN1CCC(Cc2ccc(NC(=O)Nc3cc(-c4ccc5cc(N)ncc5c4)n(C)n3)cc2C(F)(F)F)CC1 [Compound 48, 1-(5-(3-aminoisoquinolin-7-yl)-1-methyl-1H-pyrazol-3-yl)-3-(4-((1-methylpiperidin-4-yl)methyl)-3-(trifluoromethyl)phenyl)urea]	5 to 50
O=C(C#Cc1ccccc1)Nc1ccc2oc(-c3cccnc3)nc2c1 [Compound 58, 3-phenyl-N-(2-(pyridin-3-yl)benzo[d]oxazol-5-yl)propiolamide]	> 100
Cn1nc(NC(=O)Nc2ccc(CN3CCC(c4ccccc4)CC3)c(C(F)(F)F)c2)cc1-c1ccc2ccncc2c1 [Compound 40, 1-(5-(isoquinolin-7-yl)-1-methyl-1H-pyrazol-3-yl)-3-(4-((4-phenylpiperidin-1-yl)methyl)-3-(trifluoromethyl)phenyl)urea]	> 100
CN1CCN(Cc2ccc(NC(=O)Nc3cc(-c4ccc5cc(N)ncc5c4)[nH]n3)cc2C(F)(F)F)CC1 [Compound 52, 1-(5-(3-aminoisoquinolin-7-yl)-1H-pyrazol-3-yl)-3-(4-((4-methylpiperazin-1-yl)methyl)-3-(trifluoromethyl)phenyl)urea]	≤ 5
CN1CCN(Cc2ccc(NC(=O)Nc3cc(-c4ccc(-c5cccc6nccnc56)cc4)n(C)n3)cc2C(F)(F)F)CC1 [Compound 53]	> 100
Cn1nc(NS(=O)(=O)c2ccccc2)cc1-c1ccc2cc(N)ncc2c1 [Compound 66, N-(5-(3-aminoisoquinolin-7-yl)-1-methyl-1H-pyrazol-3-yl)benzenesulfonamide]	> 100
CN1CCN(Cc2ccc(NC(=O)Nc3nn(C)c4cc(-c5cnc(N)cn5)ccc34)cc2C(F)(F)F)CC1 [Compound 10, 1-(6-(5-aminopyrazin-2-yl)-1-methyl-1H-indazol-3-yl)-3-(4-((4-methylpiperazin-1-yl)methyl)-3-(trifluoromethyl)phenyl)urea]	5 to 50
CN1CCN(Cc2ccc(NC(=O)Nc3cc(-c4ccc5ncnc(N)c5c4)n(C)n3)cc2C(F)(F)F)CC1 [Compound 28, 1-(5-(4-aminoquinazolin-6-yl)-1-methyl-1H-pyrazol-3-yl)-3-(4-((4-methylpiperazin-1-yl)methyl)-3-(trifluoromethyl)phenyl)urea]	≤ 5
CN1CCN(Cc2ccc(NC(=O)Nc3cc(-c4ccc5ncncc5c4)n(C)n3)cc2C(F)(F)F)CC1 [Compound 22, 1-(1-methyl-5-(quinazolin-6-yl)-1H-pyrazo1-3-yl)-3-(4-((4-methylpiperazin-1-yl)methyl)-3-(trifluoromethyl)phenyl)urea]	≤ 5
CN1CCN(Cc2ccc(NC(=O)Nc3cc(-c4ccc5cc(N)ncc5c4)n(C)n3)cc2C(F)(F)F)CC1 [Compound 26, 1-(5-(3-aminoisoquinolin-7-yl)-1-methyl-1H-pyrazol-3-yl)-3-(4-((4-methylpiperazin-1-yl)methyl)-3-(trifluoromethyl)phenyl)urea]	≤ 5
CN1CCN(Cc2ccc(NC(=O)Nc3cc(-c4cccc5nccnc45)n(C)n3)cc2C(F)(F)F)CC1 [Compound 6]	> 100
Cn1nc(NC(=O)c2ccccc2)cc1-c1ccc2cc(N)ncc2c1 [Compound 67, N-(5-(3-aminoisoquinolin-7-yl)-1-methyl-1H-pyrazol-3-yl)benzamide]	> 100

Compound	EC50 [µM]
Cn1nc(NC(=O)Nc2ccccc2F)cc1-c1ccc2ccncc2c1 [Compound 69, 1-(2-fluorophenyl)-3-(5-(isoquinolin-7-yl)-1-methyl-1H-pyrazol-3-yl)urea]	> 100
O=C(Nc1ccc(CN2CCNCC2)c(C(F)(F)F)c1)Nc1ccc2oc(-c3cccnc3)nc2c1 [Compound 13, 1-(4-(piperazin-1-ylmethyl)-3-(trifluoromethyl)phenyl)-3-(2-(pyridin-3-yl)benzo[d]oxazol-5-yl)urea]	> 100
CN1CCC(=Cc2ccc(NC(=O)Nc3cc(-c4ccc5cc(N)ncc5c4)n(C)n3)cc2C(F)(F)F)CC1 [Compound 71, 1-(5-(3-aminoisoquinolin-7-yl)-1-methyl-1H-pyrazol-3-yl)-3-(4-((1-methylpiperidin-4-ylidene)methyl)-3-(trifluoromethyl)phenyl)urea]	5 to 50
COc1ccccc1NC(=O)Nc1cc(-c2ccc3ccncc3c2)n(C)n1 [Compound 65, 1-(5-(isoquinolin-7-yl)-1-methyl-1H-pyrazol-3-yl)-3-(2-methoxyphenyl)urea]	> 100
CN1CCN(Cc2ccc(NC(=O)Nc3nn(C)c4cc(-c5cccnc5)ccc34)cc2C(F)(F)F)CC1 [Compound 1, 1-(1-methyl-6-(pyridin-3-yl)-1H-indazol-3-yl)-3-(4-((4-methylpiperazin-1-yl)methyl)-3-(trifluoromethyl)phenyl)urea]	≤ 5
CN1CCN(Cc2ccc(NC(=O)Nc3cc(-c4ccc5ccc(O)nc5c4)n(C)n3)cc2C(F)(F)F)CC1 [Compound 23, 1-(5-(2-hydroxyquinolin-7-yl)-1-methyl-1H-pyrazol-3-y1)-3-(4-((4-methylpiperazin-1-yl)methyl)-3-(trifluoromethyl)phenyl)urea]	5 to 50
Cc1c(NC(=O)Nc2ccc(CN3CCN(C)CC3)c(C(F)(F)F)c2)ccc2oc(-c3cnn4ccccc34)nc12 [Compound 18, 1-(4-methyl-2-(pyrazolo[1,5-a]pyridin-3-yl)benzo[d]oxazol-5 yl)-3-(4-((4-methylpiperazin-1-yl)methyl)-3-(trifluoromethyl)phenyl)urea]	> 100
CN1CCN(Cc2ccc(NC(=O)Cc3cc(-c4ccc5ccncc5c4)n(C)n3)cc2C(F)(F)F)CC1 [Compound 31, 2-(5-(isoquinolin-7-yl)-1-methyl-1H-pyrazol-3-yl)-N-(4-((4-methylpiperazin-1-yl)methyl)-3-(trifluoromethyl)phenyl)acetamide]	5 to 50
CC(C)N1CCN(Cc2ccc(NC(=O)Nc3cc(-c4ccc5ccncc5c4)n(C)n3)cc2C(F)(F)F)CC1 [Compound 37, 1-(4-((4-isopropylpiperazin-1-yl)methyl)-3-(trifluoromethyl)phenyl)-3-(5-(isoquinolin-7-yl)-1-methyl-1H pyrazol-3-yl)urea]	≤ 5
CN1CCN(Cc2ccc(NC(=O)Nc3cc(-c4ccc5ccncc5c4)n(C)n3)c(-c3cnn(C)c3)c2)CC1 [Compound 21, 1-(5-(isoquinolin-7-yl)-1-methyl-1H-pyrazol-3-yl)-3-(2-(1-methyl-1H-pyrazol-4-yl)-4-((4-methylpiperazin-1-yl)methyl)phenyl)urea]	50 to 100
CN1CCN(Cc2ccc(CC(=O)Nc3cc(-c4ccc5cc(N)ncc5c4)n(C)n3)cc2C(F)(F)F)CC1 [Compound 51, N-(5-(3-aminoisoquinolin-7-yl)-1-methyl-1H-pyrazol-3-yl)-2-(4-((4-methylpiperazin-1-yl)methyl)-3-(trifluoromethyl)phenyl)acetamide]	5 to 50
Cn1nc(NC(=O)Nc2ccc(CN3CCCCC3)c(C(F)(F)F)c2)cc1-c1ccc2ccncc2c1 [Compound 42, 1-(5-(isoquinolin-7-yl)-1-methyl-1H-pyrazol-3-yl)-3-(4-(piperidin-1-ylmethyl)-3-(trifluoromethyl)phenyl)urea]	> 100
CN1CCN(Cc2ccc(NC(=O)Nc3nn(C)c4cc(-c5cnc(N)nc5)ccc34)cc2C(F)(F)F)CC1 [Compound 9, 1-(6-(2-aminopyrimidin-5-yl)-1-methyl-1H-indazol-3-yl)-3-(4-((4-methylpiperazin-1-yl)methyl)-3-(trifluoromethyl)phenyl)urea]	≤ 5
CN1CCC(Cc2ccc(NC(=O)Cc3cc(-c4ccc5nc(N)ncc5c4)n(C)n3)cc2C(F)(F)F)CC1 [Compound 49, 2-(5-(2-aminoquinazolin-6-yl)-1-methyl-1H-pyrazol-3-yl)-N-(4-((1-methylpiperidin-4-yl)methyl)-3-(trifluoromethyl)phenyl)acetamide]	> 100
CN1CCN(Cc2ccc(NC(=O)Nc3ccc4oc(-c5cccnc5)nc4c3)cc2C(F)(F)F)CC1 [Compound 15, 1-(4-((4-methylpiperazin-1-yl)methyl)-3-(trifluoromethyl)phenyl)-3-(2-(pyridin-3-yl)benzo[d]oxazol-5-yl)urea]	> 100
